The subject of assay [1] is Monocotyledonous and dicotyledonous test plants. Nature of the assay: Herbicidal action before emergence of the plants (pre-emergence action). The format is in vivo. As to conditions: evaluated after 3 weeks, nine-step scale; for pre-emergence action, Cyperus / pre-emergence action, Ipomoea / pre-emergence action, Setaria / pre-emergence action, Sinapis / pre-emergence action, Solanum / pre-emergence action, Stellaria: 2000 g/ha; for Pre-emergence action, Abutilon / Pre-emergence action, Amaranthus / Pre-emergence action, Chenop. / Pre-emergence action, Digitaria / Pre-emergence action, Echino. / Pre-emergence action, Panicum: 250 g/ha. The procedure, abridged:
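Sprayed onto soil immediately after sowing as WP suspension or EC emulsion at 2 kg or 250 g a.i./ha (500 l water/ha). Greenhouse growth for 3 weeks, then scored on a nine-step scale (1 = complete damage, 9 = no effect).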

The test system is the same in assay [2]. The assay can be described thus: Post-emergence herbicidal action. The class given is in vivo. The following applies: evaluated after approximately 18 days; for Post-emergence action, Ipomoea / Post-emergence action, Lolium / Post-emergence action, Setaria / Post-emergence action, Sinapis / Post-emergence action, Solanum / Post-emergence action, Stellaria: 2000 g/ha, sprayed in 4- to 6-leaf stage, nine-step scale; for Post-emergence action: Abutilon (score, nine-step scale) / Post-emergence action: Chenop. (score, nine-step scale) / Post-emergence action: Digitaria (score, nine-step scale) / Post-emergence action: Echino. (score, nine-step scale) / Post-emergence action: Ipopur. (score, nine-step scale) / Post-emergence action: Panicum (score, nine-step scale) / Post-emergence action: Xanth. (score, nine-step scale): 250 g/ha, sprayed at 4- to 6-leaf stage. The procedure, abridged: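 Greenhouse plants sprayed at the 4- to 6-leaf stage with test substance as wettable-powder suspension or emulsion-concentrate emulsion, 2 kg or 250 g a.i./ha in 500 l water/ha. Scored after about 18 days on a nine-step scale (1=complete damage, 9=no effect).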

From patent US6673938B1, “Substituted pyridine herbicides” (Syngenta Participations AG, priority 1998, dated 2004) come the findings set out here.

SMILES strings stand for the structures.

Turning to `Cc1nc(C(F)(F)F)ccc1C(=O)C1=C(O)C(C)(C)CC2(CCC2)C1=O` [Compound A2-C147], in assay [1], the “pre-emergence action, Cyperus” value was 2; the “pre-emergence action, Ipomoea” value is reported as 4; the “pre-emergence action, Setaria” value is given as 2; the “pre-emergence action, Sinapis” value came out at 2. In assay [1], the “pre-emergence action, Solanum” value is 2 and the “pre-emergence action, Stellaria” value amounted to 2. Also, in assay [2], the “Post-emergence action, Ipomoea” value amounted to 1; the “Post-emergence action, Lolium” value was determined as 2; the “Post-emergence action, Setaria” value stood at 2; the “Post-emergence action, Sinapis” value stood at 1. Also, in assay [2], the “Post-emergence action, Solanum” value is listed as 2 and the “Post-emergence action, Stellaria” value is recorded as 2.
On to `COCc1nc(C(F)(F)F)ccc1C(=O)C1=C([S+]([O-])c2ccccc2)CCCC1=O` (stereo not drawn) [Compound A8-B1103], for which, in assay [1], the “pre-emergence action, Cyperus” value was determined as 1; the “pre-emergence action, Ipomoea” value is 3; the “pre-emergence action, Setaria” value was 2; the “pre-emergence action, Sinapis” value is recorded as 1. For the same compound, in assay [1], the “pre-emergence action, Solanum” value was found to be 1 and the “pre-emergence action, Stellaria” value is on record as 2. Further, in assay [2], the “Post-emergence action, Ipomoea” value is 1; the “Post-emergence action, Lolium” value was 4; the “Post-emergence action, Setaria” value came to 1; the “Post-emergence action, Sinapis” value is listed as 1. For the same compound, in assay [2], the “Post-emergence action, Solanum” value stood at 1 and the “Post-emergence action, Stellaria” value stood at 1.
`CCOC(=O)C1C(O)=C(C(=O)c2ccc(C(F)(F)F)nc2C)C(=O)CC1C` (stereo not drawn) [Compound A2-B145]: in assay [1], the “Pre-emergence action, Abutilon” value was 2; the “Pre-emergence action, Amaranthus” value is 3; the “Pre-emergence action, Chenop.” value amounted to 1; the “Pre-emergence action, Digitaria” value was 2. Besides, in assay [1], the “Pre-emergence action, Echino.” value came out at 4 and the “Pre-emergence action, Panicum” value worked out at 2. Moreover, in assay [2], the “Post-emergence action: Abutilon (score, nine-step scale)” value (“Post-emergence action: Abutilon” for short) came out at 3; the “Post-emergence action: Chenop. (score, nine-step scale)” value stood at 1; the “Post-emergence action: Digitaria (score, nine-step scale)” value (from here on “Post-emergence action: Digitaria”) came out at 2; the “Post-emergence action: Echino. (score, nine-step scale)” value was 2. Further, in assay [2], the “Post-emergence action: Ipopur. (score, nine-step scale)” value came to 3; the “Post-emergence action: Panicum (score, nine-step scale)” value (shortened to “Post-emergence action: Panicum”) is listed as 2; the “Post-emergence action: Xanth. (score, nine-step scale)” value is reported as 3.
`Cc1nc(C(F)(F)F)ccc1C(=O)C1=C(O)CC(C)(C)CC1=O` [Compound A2-B1063]: in assay [1], the “pre-emergence action, Cyperus” value stood at 1; the “pre-emergence action, Ipomoea” value amounted to 2; the “pre-emergence action, Setaria” value came out at 1; the “pre-emergence action, Sinapis” value turned out to be 2. In assay [1], the “pre-emergence action, Solanum” value is 1 and the “pre-emergence action, Stellaria” value is recorded as 2. Also, in assay [2], the “Post-emergence action, Ipomoea” value is recorded as 2; the “Post-emergence action, Lolium” value was found to be 2; the “Post-emergence action, Setaria” value is listed as 4; the “Post-emergence action, Sinapis” value amounted to 1. In assay [2], the “Post-emergence action, Solanum” value stood at 2 and the “Post-emergence action, Stellaria” value worked out at 2.
Take `COC1CC(C)C(=O)C(C(=O)c2ccc(C(F)(F)F)nc2C)=C1O` (stereo not drawn) [Compound A2-B1070, 3-Hydroxy-4-methoxy-6-methyl-2-(2-methyl-6-trifluoromethyl-pyridine-3-carbonyl)cyclohex-2-enone]: in assay [1], the “pre-emergence action, Cyperus” value amounted to 2; the “pre-emergence action, Ipomoea” value stood at 3; the “pre-emergence action, Setaria” value was 3; the “pre-emergence action, Sinapis” value came out at 2. Further, in assay [1], the “pre-emergence action, Solanum” value turned out to be 2 and the “pre-emergence action, Stellaria” value is 2. In assay [2], the “Post-emergence action, Ipomoea” value is 2; the “Post-emergence action, Lolium” value came out at 4; the “Post-emergence action, Setaria” value was 2; the “Post-emergence action, Sinapis” value was determined as 2. For the same compound, in assay [2], the “Post-emergence action, Solanum” value is 2 and the “Post-emergence action, Stellaria” value is 2.
Regarding `COCc1nc(C(F)(F)F)ccc1C(=O)C1=C(O)C(C)(C)OCC1=O` [Compound A8-B552], in assay [1], the “Pre-emergence action, Abutilon” value is reported as 1; the “Pre-emergence action, Amaranthus” value is given as 4; the “Pre-emergence action, Chenop.” value is reported as 1; the “Pre-emergence action, Digitaria” value is on record as 3. Besides, in assay [1], the “Pre-emergence action, Echino.” value was found to be 4 and the “Pre-emergence action, Panicum” value came out at 2. Further, in assay [2], the “Post-emergence action: Abutilon” value is on record as 2; the “Post-emergence action: Chenop. (score, nine-step scale)” value amounted to 2; the “Post-emergence action: Digitaria” value was 3; the “Post-emergence action: Echino. (score, nine-step scale)” value worked out at 3. In assay [2], the “Post-emergence action: Ipopur. (score, nine-step scale)” value was determined as 2; the “Post-emergence action: Panicum” value stood at 2; the “Post-emergence action: Xanth. (score, nine-step scale)” value is given as 2.
Regarding `COCc1nc(C(F)(F)F)ccc1C(=O)C1=C(O)CCCC1=O` [Compound A8-B1], in assay [1], the “Pre-emergence action, Abutilon” value was determined as 1; the “Pre-emergence action, Amaranthus” value worked out at 1; the “Pre-emergence action, Chenop.” value is given as 1; the “Pre-emergence action, Digitaria” value was 2. For the same compound, in assay [1], the “Pre-emergence action, Echino.” value was determined as 2 and the “Pre-emergence action, Panicum” value is 2. Besides, in assay [2], the “Post-emergence action: Abutilon” value is on record as 3; the “Post-emergence action: Chenop. (score, nine-step scale)” value was found to be 2; the “Post-emergence action: Digitaria” value amounted to 3; the “Post-emergence action: Echino. (score, nine-step scale)” value turned out to be 3. In assay [2], the “Post-emergence action: Ipopur. (score, nine-step scale)” value is reported as 3; the “Post-emergence action: Panicum” value is recorded as 4; the “Post-emergence action: Xanth. (score, nine-step scale)” value amounted to 3.
Consider `Cc1nc(C(F)(F)F)ccc1C(=O)C1=C(O)CC(C(C)C)CC1=O` (stereo not drawn) [Compound A2-B1061], for which, in assay [1], the “pre-emergence action, Cyperus” value is on record as 3; the “pre-emergence action, Ipomoea” value came to 3; the “pre-emergence action, Setaria” value is recorded as 2; the “pre-emergence action, Sinapis” value stood at 2. In addition, in assay [1], the “pre-emergence action, Solanum” value is 1 and the “pre-emergence action, Stellaria” value is reported as 2. Moreover, in assay [2], the “Post-emergence action, Ipomoea” value is given as 2; the “Post-emergence action, Lolium” value worked out at 2; the “Post-emergence action, Setaria” value came to 2; the “Post-emergence action, Sinapis” value is 1. In assay [2], the “Post-emergence action, Solanum” value worked out at 2 and the “Post-emergence action, Stellaria” value stood at 2.
For the compound `Cc1c(C(=O)C2=C(O)C(C)(C)C(=O)C(C)(C)C2=O)ccc(C(F)(F)F)[n+]1[O-]` [Compound A1210-B354], in assay [1], the “pre-emergence action, Cyperus” value stood at 2; the “pre-emergence action, Ipomoea” value came to 3; the “pre-emergence action, Setaria” value came out at 2; the “pre-emergence action, Sinapis” value stood at 1. For the same compound, in assay [1], the “pre-emergence action, Solanum” value came to 1 and the “pre-emergence action, Stellaria” value came to 2. In assay [2], the “Post-emergence action, Ipomoea” value is 2; the “Post-emergence action, Lolium” value turned out to be 2; the “Post-emergence action, Setaria” value stood at 2; the “Post-emergence action, Sinapis” value stood at 1. Also, in assay [2], the “Post-emergence action, Solanum” value was found to be 1 and the “Post-emergence action, Stellaria” value came out at 2.
`Cc1nc(C(F)(F)F)ccc1C(=O)C1=C(O)C(C)(C)C(C)CC1=O` (stereo not drawn) [Compound A2-B156]: in assay [1], the “pre-emergence action, Cyperus” value was 1; the “pre-emergence action, Ipomoea” value was determined as 2; the “pre-emergence action, Setaria” value stood at 1; the “pre-emergence action, Sinapis” value was found to be 2. In addition, in assay [1], the “pre-emergence action, Solanum” value was found to be 1 and the “pre-emergence action, Stellaria” value was found to be 2. Besides, in assay [2], the “Post-emergence action, Ipomoea” value is 1; the “Post-emergence action, Lolium” value was 2; the “Post-emergence action, Setaria” value amounted to 2; the “Post-emergence action, Sinapis” value is 1. Also, in assay [2], the “Post-emergence action, Solanum” value was 2 and the “Post-emergence action, Stellaria” value worked out at 2.
In the case of `CCC1CC(C)(C)C(=O)C(C(=O)c2ccc(C(F)(F)F)nc2C)=C1O` (stereo not drawn) [Compound A2-B1089], in assay [1], the “pre-emergence action, Cyperus” value is 1; the “pre-emergence action, Ipomoea” value was 2; the “pre-emergence action, Setaria” value is 2; the “pre-emergence action, Sinapis” value turned out to be 2. In assay [1], the “pre-emergence action, Solanum” value turned out to be 1 and the “pre-emergence action, Stellaria” value was found to be 2. For the same compound, in assay [2], the “Post-emergence action, Ipomoea” value came out at 1; the “Post-emergence action, Lolium” value is recorded as 2; the “Post-emergence action, Setaria” value stood at 2; the “Post-emergence action, Sinapis” value is 1. For the same compound, in assay [2], the “Post-emergence action, Solanum” value was 1 and the “Post-emergence action, Stellaria” value is 2.
